Consider ten compounds from patent publication US8987287B2, “Spirocyclic morphinans and their use” (Purdue Pharma L.P., priority 2012, dated 2015).

SMILES strings stand for the structures.

The target in one assay is μ-opioid receptor (Homo sapiens (Human), UniProt P35372). Description: μ-opioid receptor [35S]GTPγS functional assay, U-2 OS cells. To be noted: for Emax: relative to DAMGO, U-2 OS cells. It counts as biochemical. As to the method: μ-Opioid Receptor Functional Assay Procedures: [^35S]GTPγS functional assays were conducted using freshly thawed μ-receptor membranes prepared in-house from a cell line expressing recombinant μ opioid receptor in a HEK-293, CHO or U-2 OS cell background, or purchased from a commercial source (Perkin Elmer, Shelton, Conn.; or DiscovRx, Fremont, Calif.). Assay reactions were prepared by sequentially adding the following reagents to binding buffer (100 mM NaCl, 10 mM MgCl2, 20 mM HEPES, pH 7.4) on ice (final concentrations indicated): membrane protein (0.026 mg/mL), saponin ([…]), GDP ([…]) and [^35S]GTPγS (0.20 nM; Perkin Elmer, Shelton, Conn.). The prepared membrane solution (190 μl/well) was transferred to 96-shallow well polypropylene plates containing 10 μl of 20× concentrated stock solutions of the agonist [D-Ala^2, N-methyl-Phe^4 Gly-ol^5]-enkephalin (DAMGO) prepared in dimethyl sulfoxide (DMSO). Plates were incubated for 30 min at about 25° C. with shaking. Reactions were terminated by rapid filtration onto 96-well Unifilter GF/B filter plates (Perkin Elmer, Shelton, Conn.) using a 96-well tissue harvester (Perkin Elmer, Shelton, Conn.) followed by three filtration washes with 200 μl of ice-cold wash buffer (10 mM NaH2PO4, 10 mM Na2HPO4, pH 7.4). Filter plates were subsequently dried at 50° C. for 2-3 hours. BetaScint scintillation cocktail (Perkin Elmer, Shelton, Conn.) was added (50 μl/well) and plates were counted using a Packard Top-Count for 1 min/well. Data were analyzed using the sigmoidal dose-response curve fitting functions in GraphPad PRISM v. 3.0, or an in-house function for non-linear, sigmoidal dose-response curve-fitting.
μ-Opioid Receptor Functional Data: μ GTP EC50 is the concentration of a compound providing 50% of the maximal response for the compound at a μ-opioid receptor.
μ GTP Emax (%) is the maximal effect elicited by a compound relative to the effect elicited by DAMGO, a standard μ agonist. Generally, the μ GTP Emax (%) value measures the efficacy of a compound to treat or prevent pain or other Conditions.
(§1) The following TABLE 3 provides results on the activity response of certain Compounds of the Invention at the μ- and κ-opioid receptors determined as described above using U-2 OS cells.

The next assay concerns the target κ opioid receptor (Homo sapiens (Human), UniProt P41145). The experiment in a line: κ-opioid receptor [35S]GTPγS functional assay, U-2 OS cells. It counts as biochemical. The settings on record: for Emax: relative to U69,593, U-2 OS cells. Here is the method:
κ-Opioid Receptor Functional Assay Procedures: Functional [^35S]GTPγS binding assays were conducted as follows. κ opioid receptor membrane solution was prepared by sequentially adding final concentrations of 0.026 μg/μl κ membrane protein (in-house), 10 μg/mL saponin, 3 μM GDP and 0.20 nM [^35S]GTPγS to binding buffer (100 mM NaCl, 10 mM MgCl2, 20 mM HEPES, pH 7.4) on ice. The prepared membrane solution (190 μl/well) was transferred to 96-shallow well polypropylene plates containing 10 μl of 20× concentrated stock solutions of agonist prepared in DMSO. Plates were incubated for 30 min at a temperature of about 25° C. with shaking. Reactions were terminated by rapid filtration onto 96-well Unifilter GF/B filter plates (Perkin Elmer, Shelton, Conn.) using a 96-well tissue harvester (Packard) and followed by three filtration washes with 200 μl ice-cold binding buffer (10 mM NaH2PO4, 10 mM Na2HPO4, pH 7.4). Filter plates were subsequently dried at 50° C. for 2-3 hours. Fifty μl/well scintillation cocktail (Perkin Elmer, Shelton, Conn.) was added and plates were counted in a Packard Top-Count for 1 min/well.
κ-Opioid Receptor Functional Data: κ GTP EC50 is the concentration of a compound providing 50% of the maximal response for the compound at a κ receptor.
κ GTP Emax (%) is the maximal effect elicited by a compound relative to the effect elicited by U69,593.
as §1

Usually EC50 stands for the concentration needed to bring the measured effect to its halfway point. A lower EC50 goes with greater potency. For orientation: Emax means the maximal effect, on the per cent scale that the assay sets. Turning to `CCN1C(=O)N(Cc2ccc(O)cc2)C(=O)[C@@]12CC[C@@]1(O)[C@H]3Cc4ccc(O)cc4[C@@]1(CCN3CC1CC1)C2` [Compound 48, (4S,4b′R,8a′S,9′R)-11′-(cyclopropylmethyl)-3-ethyl-3′,8a′-dihydroxy-1-(4-hydroxybenzyl)-8′,8a′,9′,10′-tetrahydro-5′H,7′H-spiro[imidazolidin-4,6′-[9,4b](epiminoethano)-phenantrene]-2,5-dione], on μ-opioid receptor, the concentration for a half-maximal effect (EC50) was 0.82 ± 0.093 nM and the Emax is 12 ± 0.58%. On κ opioid receptor, this compound had an EC50 of 2.61 ± 0.3 nM and an Emax of 105 ± 1.2%.
In the same order, the values of `CCN1C(=O)N[C@]2(CC[C@@]3(O)[C@H]4Cc5ccc(O)cc5[C@@]3(CCN4C)C2)C1=O` [Compound 61, (4S,4b′R,8a′S,9′R)-1-ethyl-3′,8a′-dihydroxy-11′-methyl-8′,8a′,9′,10′-tetrahydro-5′H,7′H-spiro[imidazolidine-4,6′-[9,4b](epiminoethano)phenantrene]-2,5-dione] are 39.1 ± 4.82 nM, 103.3 ± 0.88%, 2480 ± 249 nM and 109 ± 6.06%.
Consider `CCN1C(=O)N(CC)[C@]2(CC[C@@]3(O)[C@H]4Cc5ccc(O)cc5[C@@]3(CCN4C)C2)C1=O` [Compound 62, (4S,4b′R,8a′S,9′R)-1,3-diethyl-3′,8a′-dihydroxy-11′-methyl-8′,8a′,9′,10′-tetrahydro-5′H,7′H-spiro[imidazolidine-4,6′-[9,4b](epiminoethano)phenantrene]-2,5-dione], for which, at μ-opioid receptor, the EC50 is 75.2 ± 3.36 nM and the Emax was 78 ± 0.58%. For the same compound, at κ opioid receptor, the response was half-maximal at 711 ± 37.8 nM (EC50) and the Emax was found to be 108 ± 2.52%.
In the same order, the values of `O=C1NC(=O)[C@@]2(CC[C@@]3(O)[C@H]4Cc5ccc(O)cc5[C@@]3(CCN4CC3CC3)C2)N1CC(F)(F)F` [Compound 64, (4S,4b′R,8a′S,9′R)-11′-(cyclopropylmethyl)-3′,8a′-dihydroxy-3-(2,2,2-trifluoroethyl)-8′,8a′,9′,10′-tetrahydro-5′H,7′H-spiro[imidazolidine-4,6′-[9,4b](epiminoethano)-phenantrene]-2,5-dione] are 2.76 ± 0.5 nM, 14 ± 0.58%, 22.2 ± 1.46 nM and 106 ± 2.85%.
In the same order, the values of `O=C1NC(=O)[C@@]2(CC[C@@]3(O)[C@H]4Cc5ccc(O)cc5[C@@]3(CCN4CC3CC3)C2)N1CC1CC1` [Compound 65, (4S,4b′R,8a′S,9′R)-3,11′-bis(cyclopropylmethyl)-3′,8a′-dihydroxy-8′,8a′,9′,10′-tetrahydro-5′H,7′H-spiro[imidazolidine-4,6′-[9,4b](epiminoethano)phenantrene]-2,5-dione] are more than 20000 nM, 2%, 36.4 ± 7.08 nM and 92.3 ± 1.45%.
Take `CN1CC[C@]23C[C@@]4(CC[C@@]2(O)[C@H]1Cc1ccc(O)cc13)C(=O)NC(=O)N4CC1CC1` [Compound 66, (4bR,4′S,8aS,9R)-3′-(cyclopropylmethyl)-3,8a-dihydroxy-11-methyl-5,7,8,8a,9,10-hexahydrospiro[9,4b-(epiminoethano)phenanthren-6,4′-imidazolidine]-2′,5′-dione]: the concentration giving a half-maximal response (EC50) at μ-opioid receptor was 76 ± 2.31 nM; at κ opioid receptor, 4650 ± 302 nM. The Emax came to 98 ± 1.15% on μ-opioid receptor and 103 ± 7.09% at κ opioid receptor.
In the same order, the values of `O=C1NC(=O)[C@@]2(CC[C@@]3(O)[C@H]4Cc5ccc(O)cc5[C@@]3(CCN4CC3CC3)C2)N1Cc1ccccc1` [Compound 67, (4bR,4′S,8aS,9R)-3′-benzyl-11-(cyclopropylmethyl)-3,8a-dihydroxy-5,7,8,8a,9,10-hexahydrospiro[9,4b-(epiminoethano)phenanthrene-6,4′-imidazolidine]-2′,5′-dione] are 9.38 ± 0.76 nM, 28.4 ± 8.48 nM, 20% and 115 ± 4.84%.
In the same order, the values of `N#CCN1C(=O)NC(=O)[C@@]12CC[C@@]1(O)[C@H]3Cc4ccc(O)cc4[C@@]1(CCN3CC1CC1)C2` [Compound 68, 2-((4bR,4′S,8aS,9R)-11-(cyclopropylmethyl)-3,8a-dihydroxy-2,5-dioxo-5,7,8,8a,9,10-hexahydrospiro[9,4b-(epiminoethano)phenanthrene-6,4′-imidazolidin]-3′-yl)acetonitrile] are 5.63 ± 1.74 nM, 7.06 ± 1.53 nM, 16 ± 1.15% and 108 ± 6.89%.
At μ-opioid receptor, `CCN1C(=O)NC(=O)[C@@]12CC[C@@]1(O)[C@H]3Cc4ccc(O)cc4[C@@]1(CCN3C)C2` [Compound 69, (4S,4b′R,8a′S,9′R)-3-ethyl-3′,8a′-dihydroxy-11′-methyl-8′,8a′,9′,10′-tetrahydro-5′H,7′H-spiro[imidazolidine-4,6′-[9,4b](epiminoethano)phenantrene]-2,5-dione] displayed an EC50 of 43.6 ± 2.97 nM and an Emax of 97.3 ± 1.45%. On κ opioid receptor, this compound showed an EC50 of 866 ± 94.6 nM and an Emax of 110 ± 8.5%.
On μ-opioid receptor, `CN1CC[C@]23C[C@@]4(CC[C@@]2(O)[C@H]1Cc1ccc(O)cc13)C(=O)NC(=O)N4C` [Compound 70, (4S,4b′R,8a′S,9′R)-3′,8a′-dihydroxy-3,11′-dimethyl-8′,8a′,9′,1′-tetrahydro-5′H,7′H-spiro[imidazolidine-4,6′-[9,4b](epiminoethano)phenantrene]-2,5-dione] showed an EC50 of 23.4 ± 2.03 nM and an Emax of 99 ± 1.53%. Also, on κ opioid receptor, the response was half-maximal at 322 ± 28.1 nM (EC50) and the Emax stood at 118 ± 9.61%.
